Results: patent publication US8372808B2, “Suppression of glial fibrillary acidic protein” (Wisconsin Alumni Research Foundation, priority 2008, dated 2013)
Like-named read-outs stand apart in the source and are kept apart here.

Legend:
[1] = system: 2.2 kb human GFAP promoter; test: hGFAP promoter luciferase activity assay in 172.9 cells (primary astrocytes from dual luciferase transgenic mice); assay type: cell-based; conditions: for reductions in luciferase activity: quaternary screen, 10 days of exposure; for % GFAP reductions, luciferace expression from hGFAP promoter: tertiary screen, 48 hr exposure, at the MTDcc
Protocol: Cell-based assays were performed as four different screens using enriched cortical primary astrocyte cultures developed from transgenic mice expressing both firefly and Renilla luciferase reporter genes were generated. Briefly, the'firefly luciferase was placed under the control of a 2.2 kb human GFAP promoter to monitor GFAP transcription, and the Renilla luciferase was placed under the control of a 0.5 kb human GAPDH (glyceraldehyde 3-phosphate dehydrogenase) promoter to monitor transcription of a housekeeping gene for signal normalization. See section B, below for more detail regarding the development of transgenic mouse strains. Cells used in the following examples (e.g., the cortical primary astrocyte cells termed “172.9 cells,” described below) were developed from the transgenic mice described in section B.
Briefly, the cortices from individual pups were freed of meninges and placed into DMEM (Gibco) without serum, mechanically disassociated into single cells, suspended in medium containing DMEM supplemented with 10% fetal bovine serum (FBS; Hyclone), 100 U/ml penicillin, 100 μg/ml streptomycin (Gibco), seeded into T25 flasks (one brain per flask), and maintained in a humidified 5% CO2 atmosphere at 37° C. […] Medium was changed every 3 days. At 14-16 days in vitro (DIV), the flasks were shaken overnight at 200 rpm to remove oligodendrocytes and microglia. […] The cells were then suspended in DMEM with 10% FBS and plated (“passage 2”) on either 35 mm dishes, […], or 96-well plates (Corning) as needed. Cells were grown for varying days in vitro (DIV) at passage 2 and then used for various experiments. Tissue culture dishes and plates were pre-coated with 100 μg/ml poly-L-lysine for 1 h in a humidified 5% CO2 atmosphere at 37° C., and then allowed to air dry. […] Cell density was measured with the Vi-CELL cell counter (Beckman Coulter) or hemocytometer by the trypan-blue exclusion method. For simplicity, cells are referred to as “172.9 cells.”
Briefly, 172.9 cells were plated on poly-L coated white 96-well plates at a density of 5000 cells per well, in 100 μl DMEM with 10% FBS. At twenty-four hours, cells were exposed to the different compounds at a final concentration of 10 μM (diluted from a 50 mM stock) prepared in new medium (DMEM with 10% FBS). […] After exposure to compounds, luciferase activity in the primary and secondary screenings was determined by adding 30 μl of Bright-Glo™ reagent (Promega) to the 100 μl of media and cells of each well in the white 96-well plates with the Biomek® FX liquid handler (Beckman Coulter). After incubation for 1 minute at room temperature, signals were measured with the Safire 2 plate reader using Magellan™ software (Tecan). Other specific methods and equipment are known in the art and can be used to measure luciferase expression levels. This assay method is termed the “hGFAP promoter luciferase activity assay.” A reduction in luciferase expression as determined by this assay is termed “hGFAP promoter luciferase reduction.” For some assays that were aimed at confirming results of the initial screens, the same amount of Bright-Glo™ reagent was applied to each well in 96-well plates and signals were detected with the GloRunner™ Microplate Luminometer (Turner Biosystems) using the Dual-Glo® luciferase assay according to the manufacturer's recommendations (E1910, Promega).
In the secondary screen, cells were plated in a 96-well plate as described above for the primary screen.
Some compounds were unavailable outside of the library collections, and could not be further tested.
Each compound and concentration was analyzed in quadruplicate wells.
(§1) Compounds were tested at eight different concentrations ranging from 0-20 μM. In addition, GFAP protein levels were measured using a sandwich ELISA, which has greater sensitivity and is more accurate than the cell-based ELISA used in the primary screens.

[2] = system: mGFAP protein; test: cell-based GFAP protein level assay (cell-based ELISA) in 172.9 cells; design: species or system mouse; conditions: for % GFAP reductions, mGFAP protein via ELISA: tertiary screen, 48 hr exposure, at the MTDcc
[3] = system: 172.9 cells; test: cell viability (CellTiter-Glo) / MTDcc in 172.9 cells
Protocol: Criterion for acceptable viability was >70% survival.
Cell viability was determined as follows. After exposure to each compound (duplicate wells per compound), 50 μl of CellTitier-Glo Luminescent Cell Viability Assay reagent (G7571, Promega) was added to the 100 μl of media present in each well, and the luminescent signal (reflecting intracellular ATP level) was detected with either a Victor 3-V plate reader (Perkin Elmer) or GloRunner Microplate Luminometer (Turner Biosystems). Cell viability was expressed as a percent of non-treated control cells.
A dose-response curve was created for each compound (0.1, 0.5, 1, 5, 10, 15, 20 μM) using 48 hr exposures. The MTDcc (“maximum tolerated dose—cell culture”) indicates the highest concentration that retained at least 70% cell viability. Each compound and concentration was analyzed in quadruplicate wells. EGCDG: epigallocatechin 3,5-digallate; NPPB: 5-nitro-2-phenylproplyaminobenzoic acid. As used herein, MTDcc refers to the MTD as determined by this assay under the above conditions.

[4] = system: GFAP protein; test: sandwich ELISA for GFAP protein in 172.9 cells, quaternary screen; assay type: cell-based, mouse; conditions: 10 days of exposure, 0-20 μM
Protocol: as §1
The extracts were harvested from each well and the total GFAP content of each well was measured by a sandwich ELISA as described below. Briefly, separate microtiter plates were coated with SMI-26 anti-GFAP mouse monoclonal antibody cocktail (1:1000, Covance, diluted in PBS) overnight at 4° C., rinsed 3 times in PBS, and then blocked with Blotto (5% nonfat milk/PBS) for 2 h at RT. Samples from the astrocyte cell lysate (20 μl per well) were loaded onto the plates and brought up to 100 μl with 0.5% Triton X-100/PBS (a buffer used for subsequent antibody incubations and rinses), and incubated with a rabbit polyclonal anti-GFAP antibody (1:5000, DAKO) overnight at 4° C. The plates were rinsed three times and then incubated with HRP-conjugated goat anti-rabbit IgG (1:30,000, Sigma) for 2 h at RT. After three final rinses, peroxidase activity was detected using the Super Signal Femto maximum Sensitivity Substrate (Pierce) with a GloRunner microplate luminometer (Turner Biosystems). The GFAP content in the samples was determined from a standard curve generated using serial dilutions of purified GFAP (Research Diagnostics).

[5] = system: mGFAP protein; test: GFAP protein levels by ELISA in 172.9 cells treated with betulinic acid derivatives; assay type: cell-based, mouse; conditions: 7 days of treatment, 0-20 μM
Protocol: FIG. 9A-D are graphs showing the effects of betulinic acid and betulinic acid derivatives on mGFAP protein levels in 172.9 cells after 7 days of treatment. In the graphs, ester and amide forms of various compounds are paired for comparison.
172.9 cells were used to test the effects of betulinic acid and betulinic acid derivatives on GFAP promoter activity and GFAP protein levels. Experiments were performed as previously described. Each of eight compounds (D-altroside (ester); D-altroside (amide); D-xyloside (ester); D-xyloside (amide); aglycon (ester); aglycon (amide); betulinic acid; 3-amino betulinic acid) was tested at a concentration of 0 μM, 0.1 μM, 0.5 μM, 1 μM, 5 μM, 10 μM, 15 μM, and 20 μM. […] Toxicity of the compounds was also evaluated.

[6] = secondary screen, 10 μM, 48 hours

O=C(Oc1cc(O)cc2c1C[C@@H](OC(=O)c1cc(O)c(O)c(O)c1)[C@@H](c1cc(O)c(O)c(O)c1)O2)c1cc(O)c(O)c(O)c1 [EGCDG, epigallocatechin 3,5-digallate]
reductions in luciferase activity ([1]; 0-20 μM): consistent reductions
suppression in the promoter assay [1, 6]: significant suppression
% GFAP reductions, luciferace expression from hGFAP promoter [1]: 57%
suppression in the protein assay [2, 6]: significant suppression
% GFAP reductions, mGFAP protein via ELISA [2]: 4.5%
MTDcc [3]: 17.5 µM
cell viability [3]: acceptable cell viability
reductions in GFAP protein levels [4]: consistent reductions

C=C(C)[C@@H]1CC[C@]2(C(=O)O)CC[C@]3(C)[C@H](CCC4[C@@]5(C)CC[C@H](OC(=O)CNOC)C(C)(C)C5CC[C@]43C)C12 (stereo partly drawn) [aglycon (ester), (3S)—O—(N-Methoxyglycyl)betulinic acid]
effect on GFAP promoter activity (luciferase expression driven by the hGFAP promoter) ([1]; 172.9 cells, 3 days of treatment, 0-20 μM): decreased luciferase expression
effect on GFAP protein levels [5]: minimal effect

CN(C)CCC=C1c2ccccc2CCc2ccccc21 [amitriptyline]
reductions in luciferase activity ([1]; 0-20 μM): consistent reductions
% GFAP reductions, luciferace expression from hGFAP promoter [1]: 63%
% GFAP reductions, mGFAP protein via ELISA [2]: 12.2%
cell viability [3]: acceptable cell viability
MTDcc ([3]; mouse, 48 h): >20 µM
reductions in GFAP protein levels [4]: consistent reductions
